Columns and labels:
[1] = (§1) Binding affinity to sigma 2 receptor (unknown origin) by radioligand binding assay; design: species or system Homo sapiens
[2] = molecular target: Sigma non-opioid intracellular receptor 1 (Homo sapiens, UniProt Q99720); assay: Binding affinity to sigma 1 receptor (unknown origin) by radioligand binding assay; conditions: for inhibition: concentration not given here
[3] = Half life in mouse brain at 10 to 30 mg/kg, ip; type: ADME, organism-based; design: dose 10-30 mg/kg, route intraperitoneal
[4] = Metabolic stability in rat liver S9 fractions at 10 uM after 30 mins by RP-HPLC analysis; type: ADME, subcellular, Liver S9 fraction; conditions: read-out: Stability
[5] = molecular target: T1, Adrenergic receptor alpha-1 (Rattus norvegicus, UniProt P15823+P23944+P43140); assay: Displacement of [3H]-prazosin from alpha1 adrenergic receptor in rat cerebral cortex membranes after 50 mins; type: cell membranes, Membrane
T1 sequence (P15823 whole entry): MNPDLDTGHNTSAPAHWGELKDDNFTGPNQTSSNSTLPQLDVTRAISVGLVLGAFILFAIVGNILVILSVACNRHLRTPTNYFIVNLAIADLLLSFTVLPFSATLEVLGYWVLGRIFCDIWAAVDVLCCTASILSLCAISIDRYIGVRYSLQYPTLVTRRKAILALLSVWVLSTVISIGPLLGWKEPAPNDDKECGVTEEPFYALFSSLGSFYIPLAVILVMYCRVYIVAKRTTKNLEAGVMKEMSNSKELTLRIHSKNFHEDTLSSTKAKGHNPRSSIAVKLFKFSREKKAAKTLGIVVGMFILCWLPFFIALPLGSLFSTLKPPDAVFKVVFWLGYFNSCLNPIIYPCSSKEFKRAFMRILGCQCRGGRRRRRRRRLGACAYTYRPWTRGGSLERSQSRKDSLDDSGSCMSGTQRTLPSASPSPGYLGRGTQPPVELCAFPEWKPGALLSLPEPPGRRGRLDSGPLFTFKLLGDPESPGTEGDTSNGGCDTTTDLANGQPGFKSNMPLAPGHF
T1 sequence (P23944 whole entry): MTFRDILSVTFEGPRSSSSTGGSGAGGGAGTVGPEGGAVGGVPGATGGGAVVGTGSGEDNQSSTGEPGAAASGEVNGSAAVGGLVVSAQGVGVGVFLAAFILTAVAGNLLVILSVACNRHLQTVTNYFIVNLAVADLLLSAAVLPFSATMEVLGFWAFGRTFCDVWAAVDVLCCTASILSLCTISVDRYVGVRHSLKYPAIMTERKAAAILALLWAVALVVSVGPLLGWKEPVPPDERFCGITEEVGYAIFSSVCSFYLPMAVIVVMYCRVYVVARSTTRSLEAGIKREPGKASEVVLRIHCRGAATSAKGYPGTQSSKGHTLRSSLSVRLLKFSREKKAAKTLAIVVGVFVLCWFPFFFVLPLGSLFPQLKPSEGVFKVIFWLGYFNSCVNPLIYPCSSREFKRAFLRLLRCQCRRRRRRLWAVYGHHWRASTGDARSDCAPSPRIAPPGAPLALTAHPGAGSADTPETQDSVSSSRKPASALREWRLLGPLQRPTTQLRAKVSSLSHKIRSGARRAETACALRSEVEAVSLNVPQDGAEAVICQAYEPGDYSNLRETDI
T1 sequence (P43140 whole entry): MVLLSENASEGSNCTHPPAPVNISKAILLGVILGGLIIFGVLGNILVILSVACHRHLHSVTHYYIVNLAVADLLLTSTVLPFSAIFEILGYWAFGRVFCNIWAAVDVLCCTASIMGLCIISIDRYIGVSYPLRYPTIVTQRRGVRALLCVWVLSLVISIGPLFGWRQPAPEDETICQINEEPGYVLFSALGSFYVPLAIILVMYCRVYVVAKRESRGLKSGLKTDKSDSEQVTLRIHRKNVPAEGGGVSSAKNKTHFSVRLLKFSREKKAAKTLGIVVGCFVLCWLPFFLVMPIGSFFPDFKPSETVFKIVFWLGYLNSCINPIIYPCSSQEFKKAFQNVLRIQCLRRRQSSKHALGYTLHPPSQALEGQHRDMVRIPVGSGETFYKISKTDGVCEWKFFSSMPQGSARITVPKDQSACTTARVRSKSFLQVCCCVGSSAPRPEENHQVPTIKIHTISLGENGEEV

[6] = molecular target: T2, 5-hydroxytryptamine receptor 1A (Homo sapiens, UniProt P08908); assay: Displacement of [3H]-8-OH-DPAT from human 5HT1A receptor after […]
T2 sequence (P08908 whole entry): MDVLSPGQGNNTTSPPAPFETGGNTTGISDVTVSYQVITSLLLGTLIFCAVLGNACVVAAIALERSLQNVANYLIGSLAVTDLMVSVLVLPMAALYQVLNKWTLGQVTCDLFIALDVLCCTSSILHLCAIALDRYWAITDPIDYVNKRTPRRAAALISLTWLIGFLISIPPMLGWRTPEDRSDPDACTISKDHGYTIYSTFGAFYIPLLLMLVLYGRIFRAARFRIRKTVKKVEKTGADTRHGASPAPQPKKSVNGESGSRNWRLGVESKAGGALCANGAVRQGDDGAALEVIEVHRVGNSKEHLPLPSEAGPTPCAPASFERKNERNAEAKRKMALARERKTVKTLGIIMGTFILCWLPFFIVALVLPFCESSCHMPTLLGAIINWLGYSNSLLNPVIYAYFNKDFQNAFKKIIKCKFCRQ

[7] = molecular target: 5-hydroxytryptamine receptor 7 (Homo sapiens, UniProt P34969); assay: Displacement of [3H]5-CT from human 5HT7A receptor expressed in HEK293 cells after 60 mins; type: cell-based
Chain of 5-hydroxytryptamine receptor 7 (P34969 whole entry): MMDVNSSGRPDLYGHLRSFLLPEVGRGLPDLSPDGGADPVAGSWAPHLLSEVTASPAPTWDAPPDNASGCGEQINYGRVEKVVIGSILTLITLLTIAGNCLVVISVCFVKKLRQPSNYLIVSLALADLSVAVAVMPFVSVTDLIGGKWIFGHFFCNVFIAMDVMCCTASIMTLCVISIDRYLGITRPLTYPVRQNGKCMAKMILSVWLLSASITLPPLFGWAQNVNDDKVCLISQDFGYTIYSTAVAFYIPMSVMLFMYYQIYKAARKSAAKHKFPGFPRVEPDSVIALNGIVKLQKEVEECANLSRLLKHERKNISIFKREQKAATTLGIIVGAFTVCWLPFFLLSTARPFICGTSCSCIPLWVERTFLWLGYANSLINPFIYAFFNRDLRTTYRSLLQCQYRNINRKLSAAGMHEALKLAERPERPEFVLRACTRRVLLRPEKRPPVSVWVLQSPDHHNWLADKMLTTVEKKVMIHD

[8] = molecular target: T2, 5-hydroxytryptamine receptor 1A; assay: Displacement of [3H]-8-OH-DPAT from human recombinant 5HT1A receptor expressed in HEK293-EBNA cells after 120 mins; type: cell-based
Homo sapiens = organism: Homo sapiens; assay: as §1; conditions: concentration not given here
[9] = Efflux ratio of apparent permeability from basolateral to apical side over apical to basolateral side in human Caco2 cells at 1 to 100 uM after 120 mins by UV spectroscopic analysis; type: ADME, cell-based; conditions: Caco-2
Mus musculus = assay: Elimination half life in CD1 mouse assessed as 1-[2-(4-methoxyphenyl)phenyl]piperazine at 10 mg/kg, ip qd by RP-HPLC analysis; type: ADME, organism-based; design: dose 10 mg/kg, route intraperitoneal; conditions: in vivo
[10] = Ratio of AUC from brain to plasma of CD1 mouse at 10 mg/kg, ip qd measured within 120 mins by RP-HPLC analysis; type: ADME, organism-based; design: dose 10 mg/kg, route intraperitoneal; conditions: read-out: Ratio AUC
[11] = Elimination half life in CD1 mouse at 10 mg/kg, ip qd by RP-HPLC analysis; type: ADME, organism-based; design: dose 10 mg/kg, route intraperitoneal; conditions: in vivo, read-out: beta t1/2
[12] = Cmax in plasma of CD1 mouse at 10 mg/kg, ip qd after 15 mins by RP-HPLC analysis; type: ADME, organism-based; design: dose 10 mg/kg, route intraperitoneal
[13] = Cmax in brain of CD1 mouse at 10 mg/kg, ip qd after 30 mins by RP-HPLC analysis; type: ADME, organism-based; design: dose 10 mg/kg, route intraperitoneal
Brain = assay: Cmax in brain of CD1 mouse assessed as 1-[2-(4-methoxyphenyl)phenyl]piperazine at 10 mg/kg, ip qd after 30 mins by RP-HPLC analysis; type: ADME, organism-based; design: dose 10 mg/kg, route intraperitoneal; conditions: in vivo, 0.5 h

Chain of Sigma non-opioid intracellular receptor 1 (Q99720 whole entry): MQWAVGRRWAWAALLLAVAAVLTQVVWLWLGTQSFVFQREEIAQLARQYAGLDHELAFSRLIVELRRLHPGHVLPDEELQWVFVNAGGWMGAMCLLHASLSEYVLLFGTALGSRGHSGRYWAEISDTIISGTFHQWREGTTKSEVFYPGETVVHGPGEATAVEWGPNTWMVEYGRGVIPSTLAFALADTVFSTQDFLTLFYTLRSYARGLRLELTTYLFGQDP

Row | SMILES | Ki [1] [µM] | Ki [2] [µM] | inhibition [2] [%] | half-life [3] [h] | remaining at 0.5 h, 10 µM [4] [%] | Ki [5] [µM] | Ki [6] [µM] | Ki [7] [µM] | Ki [8] [µM] | inhibition (Homo sapiens) [%] | efflux ratio at 2 h, up to 100 µM [9] | beta t1/2 (Mus musculus) [h] | Kp at 2 h [10] | half-life [11] [h] | Cmax [12] [ng/mL] | Cmax [13] [ng/g] | Cmax (Brain) [ng/g]
1 | N#Cc1ccc(CNC(=O)CCCCCN2CCN(c3ccccc3-c3ccccc3)CC2)cc1 | 4.2 | > 5 | 48 | 1.15 | 40 | 0.0226 | 0.379 |  |  |  |  |  |  |  |  |  | 
2 | COc1ccc(-c2ccccc2N2CCN(CCCCCC(=O)NCc3ccccn3)CC2)cc1 | 3.48 |  |  |  | 69 | 0.0114 |  | 0.0152 | 0.035 |  |  |  |  |  |  |  | 
3 | COc1ccc(-c2ccccc2N2CCN(CCOCCC(=O)NCc3ccccn3)CC2)cc1 | > 10 | > 5 | 27 |  | 78 | 0.295 |  | 0.0235 | 0.918 | 39 |  |  |  |  |  |  | 
4 | COc1ccc(-c2ccccc2N2CCN(CCOCCC(=O)NCc3cccnc3)CC2)cc1 | > 10 | > 5 | 36 |  | 82 | 0.393 |  | 0.0238 | 1.27 | 38 | 3.3 | 2 | 1.3 | 0.733 | 702 | 308 | 484

Other lines, results leading:

Row | Ki [1] [µM] | Ki [2] [µM] | inhibition [2] [%] | half-life [3] [h] | remaining at 0.5 h, 10 µM [4] [%] | Ki [5] [µM] | Ki [6] [µM] | Ki [7] [µM] | Ki [8] [µM] | inhibition (Homo sapiens) [%] | efflux ratio at 2 h, up to 100 µM [9] | beta t1/2 (Mus musculus) [h] | Kp at 2 h [10] | half-life [11] [h] | Cmax [12] [ng/mL] | Cmax [13] [ng/g] | Cmax (Brain) [ng/g] | SMILES
5 | 0.356 | > 5 | 30 |  | 76 | 0.0305 |  | 0.0112 | 0.239 |  |  |  |  |  |  |  |  | COc1ccc(-c2ccccc2N2CCN(CCCCCC(=O)NCc3ccncc3)CC2)cc1
6 | > 10 | > 5 | 33 |  | 82 | 0.193 |  | 0.018 | 0.877 | 45 |  |  |  |  |  |  |  | COc1ccc(-c2ccccc2N2CCN(CCOCCC(=O)NCc3ccncc3)CC2)cc1
7 | 0.638 |  |  |  | 85 | 0.0383 |  | 0.0127 | 0.08 |  | 4.5 |  |  |  |  |  |  | COc1ccc(-c2ccccc2N2CCN(CCCCCC(=O)NCc3cccnc3)CC2)cc1
